Test results from BindingDB's records for doi:10.1016/S0960-894X(98)00544-7 (University of Ferrara, 1999).

Assay: Inhibition of Ha-ras polymerase-chain reaction product

- IC50: > 300 µM
SMILES: COC(=O)CCOc1cc2c(cc1OC)C(=O)N1CCC[C@H]1C=N2 [3-((S)-7-Methoxy-5-oxo-2,3,5,11a-tetrahydro-1H-benzo[e]pyrrolo[1,2-a][1,4]diazepin-8-yloxy)-propionic acid methyl ester]
